Patent publication US20090181901A1, “COMPOSITIONS AND METHODS TO INCREASE BIOAVAILABILITY OF CAROTENOIDS” (priority 2007, published 2009)

What was measured:
[1] = In vitro stability of lutein in pH 7.0 buffer (UV-VIS degradation ratio); format: physicochemical
Method: 10.0 mg ([…]) lutein in 10 ml was added to a volumetric flask and diluted to volume with THF. In a small beaker, 0.50 g PEO (20) sorbitan monooleate was dissolved in 15.0 g de-ionized water. 1.0 ml lutein THF solution was added into the water solution and sonicated until a clear yellow micro-emulsion was formed.
10.0 mg (0.006 mmol) bilberry extract was added to a second 10 ml volumetric flask and filled to volume with de-ionized water. 1.0 ml bilberry extract solution was transferred to a small beaker and sonicated until a homogeneous solution was obtained. 1.0 ml of the bilberry solution was placed into a 10 ml colorless volumetric flask and filled to volume with sodium phosphate buffer (pH=7.0). The buffered solution was placed into a 37° C. water bath for 5 hours. UV-VIS spectrometery was used to analyze the degradation ratio. All samples were made alike. Similarly, L-cysteine was used in place of bilberry extract.

[2] = Cellular uptake of Lutein (free form) in CaCo-2 cells; format: in vitro ADME; settings: human, 10 mg Lutein/100 mL medium, alone or plus 160 mg bilberry extract or 180 mg Bil/Cys
Method: (§1) CaCo-2 cells were cultured in Dulbeccos's Modified Eagle Medium containing 20% fetal bovine serum, 1.2% nonessential amino acids, 0.83 mM L-glutamine, 1.2% penicillin-streptomycin and 0.1% mercaptoethanole in an atmosphere of 5% CO2 and 95% air at 37° C.
(§2) Cells were grown in 75 cm^2 culture-flasks (T75) and sub-cultured after one week (every other day washed with PBS buffer, removed with trypsin and transferred to a new culture flask).
(§3) For experiments, cells were seeded in 6 well plates at a density of 3×10^5 cells per well and grown in an atmosphere of 5% CO2 and 95% air at 37° C. 7 to 8 days until confluence was reached. The cells were washed with PBS buffer, incubated with 4 ml medium containing the suspended samples for 30, 60 or 120 minutes.
After the corresponding incubation time, the cells were washed with PBS buffer and removed using 1 ml of TBME. Cells were sonicated 3 times for 30 seconds, centrifuged for 10 min and the pellets were discarded. The supernatant was used as sample for HPLC (lutein). For luteindipalmitinic-ester the supernatant was hydrolyzed by reflux heating in ethanol/HCl.
Cmax was taken directly from the concentration/time data obtained from the analysis. […]
Quantification was performed by external standardization after linear regression analysis. […]

CaCo-2 cells [3] = assay: Cellular uptake of Lutein and Zeaxanthine in CaCo-2 cells with or without black currant extract; format: in vitro ADME; settings: for Level observed in cells: 9 mg Lutein+1 mg Zeaxanthine/100 mL; for Absorption in presence of black currant extract (in words): compared with absence of black currant extract; for Factor by which absorption is increased in presence of Black Currant extract: with vs without Black Currant extract
Method: CaCo-2 cells were cultured in Dulbeccos's Modified Eagle Medium (DMEM) containing 20% fetal bovine serum, 1.2% nonessential amino acids, 0.83 mM L-glutamine, 1.2% penicillin-streptomycin and 0.1% mercaptoethanole in an atmosphere of 5% CO2 and 95% air at 37° C.
as §2
as §3, with “C.,” for “C.”
After the corresponding incubation time, the cells were washed with PBS buffer and removed using 1 ml of TBME. Cells were sonicated 3 times for 30 seconds, centrifuged for 10 min and the pellets were discarded. The supernatant was used as sample for HPLC (lutein).
Cmax was taken directly from the concentration/time data obtained from the analysis.
The concentration/time data obtained from the analysis were further submitted to non-compartmental calculation of the AUC0-120min using the trapezoidal rule.
(§4) Quantification was performed by external standardization after linear regression analysis.
CaCo-2 cells were incubated with (9 mg Lutein+1 mg Zeaxanthine, see Table 6)/100 mL with or without 160 mg black currant extract/100 mL medium. Incubations were performed at 37° C. for 30, 60 and 120 minutes. At each time point, 3 wells were processed for analysis by collection of the incubation medium and extraction of Lutein/Zeaxanthine absorbed into the cells.

[4] = Stability of Lutein and Zeaxanthine in incubation medium (control experiment); format: physicochemical; settings: for Stability in incubation medium: 37° C.; for Breakdown in incubation medium (in words): test assay conditions, 120 minutes at 37° C.
From the text: In a control experiment, the stability of the analytes under the experimental conditions was investigated.

CaCo-2 cells [5] = assay: Cellular uptake of Lutein (esterified form) in CaCo-2 cells; format: in vitro ADME; settings: 20 mg Luteindipalmitinic-ester/100 mL medium, alone or plus 160 mg bilberry extract or 180 mg Bil/Cys; 37° C.; lutein quantified after hydrolysis
Method: as §1, §2
as §3, with “minutes. […]” for “minutes.”
as §4
CaCo-2 cells were incubated with 20 mg Luteindipalmitinic-ester/100 mL medium, 20 mg (0.019 mmol) Luteindipalmitinic-ester plus 160 mg bilberry extract (25% anthocyanins, 0.08 mmol)/100 mL medium or 20 mg Luteindipalmitinic-ester plus 180 mg Bil/Cys [equivalent to 162 mg bilberry (25% anthocyanins, 0.081 mmol) and 18 mg (0.149 mmol) L-cysteine] at 37° C. for 30, 60 and 120 minutes. […] After hydrolysis of the luteinester, lutein was quantified in the cells.

[6] = Time 0 min, with BC (160 mg black currant extract/100 mL)
[7] = Time 30 min, with BC (160 mg black currant extract/100 mL)
[8] = Time 60 min, with BC (160 mg black currant extract/100 mL)
[9] = Time 120 min, with BC (160 mg black currant extract/100 mL)
[10] = with BC (160 mg black currant extract/100 mL)
[11] = Time 120 min, slight increase ascribed to evaporation of the medium

Row | SMILES | Relative cellular uptake (sum of lutein and Zeaxanthine set to 100%) (CaCo-2 cells [3]; 30 min, With Black Currant) [%] | Relative cellular uptake (sum of lutein and Zeaxanthine set to 100%) (CaCo-2 cells [3]; 30 min, Without Black Currant) [%] | Relative cellular uptake (sum of lutein and Zeaxanthine set to 100%) (CaCo-2 cells [3]; 60 min, With Black Currant) [%] | Relative cellular uptake (sum of lutein and Zeaxanthine set to 100%) (CaCo-2 cells [3]; 60 min, Without Black Currant) [%] | Relative cellular uptake (sum of lutein and Zeaxanthine set to 100%) (CaCo-2 cells [3]; 120 min, With Black Currant) [%] | Relative cellular uptake (sum of lutein and Zeaxanthine set to 100%) (CaCo-2 cells [3]; 120 min, Without Black Currant) [%] | Level observed in cells (CaCo-2 cells [3]; [6]) [ng/mL] | Level observed in cells (CaCo-2 cells [3]; Time 0 min, without BC) [ng/mL] | Level observed in cells (CaCo-2 cells [3]; [7]) [ng/mL] | Level observed in cells (CaCo-2 cells [3]; Time 30 min, without BC) [ng/mL] | Level observed in cells (CaCo-2 cells [3]; [8]) [ng/mL] | Level observed in cells (CaCo-2 cells [3]; Time 60 min, without BC) [ng/mL] | Level observed in cells (CaCo-2 cells [3]; [9]) [ng/mL] | Level observed in cells (CaCo-2 cells [3]; Time 120 min, without BC) [ng/mL] | Absorption in presence of black currant extract (in words) (CaCo-2 cells [3]) | AUC0-120 of cellular uptake (CaCo-2 cells [3]; [10]) [µg·min/mL] | Cmax of cellular uptake (CaCo-2 cells [3]; [10]) [ng/mL] | Factor by which absorption is increased in presence of Black Currant extract (CaCo-2 cells [3]) | AUC0-120 of cellular uptake (CaCo-2 cells [3]; without BC) [µg·min/mL] | Cmax of cellular uptake (CaCo-2 cells [3]; without BC) [ng/mL] | further results
1 | N[C@@H](CS)C(=O)O [L-Cys, L-Cysteine] |  |  |  |  |  |  |  |  |  |  |  |  |  |  |  |  |  |  |  |  | Residual Ratio of lutein ([1]; 0.2 mg (0.17 μmol/ml) L-Cys, pH 7.0, 37° C., 5 hours, blank 86.82): 90.22%; Residual Ratio of lutein ([1]; 1.0 mg (0.8 μmol/ml) L-Cys, 4.3 μg free lutein, phosphate buffer pH 7.0, 37° C., 5 hours, blank (lutein alone) 86.82): 94.52%; Residual Ratio of lutein ([1]; 2.0 mg (1.7 μmol/ml) L-Cys, 4.3 μg free lutein, pH 7.0, 37° C., 5 hours, blank 86.82): 94.47%; Residual Ratio of lutein ([1]; 5.0 mg (4.1 μmol/ml) L-Cys, 4.3 μg free lutein, pH 7.0, 37° C., 5 hours, blank 86.82): 95.41%; Residual Ratio of lutein ([1]; 10.0 mg (8.2 μmol/ml) L-Cys, 4.3 μg free lutein, pH 7.0, 37° C., 5 hours, blank 86.82): 94.74%; Protection of lutein against degradation (in words) ([1]; neutral environmental conditions): remarkable protection; Concentration at which an enhanced protective effect on lutein was noted ([1]; pH 7.0, 37° C., 5 hours): about 4.1 μmol/ml
2 | CC1=C[C@H](O)CC(C)(C)[C@H]1/C=C/C(C)=C/C=C/C(C)=C/C=C/C=C(C)/C=C/C=C(C)/C=C/C1=C(C)C[C@@H](O)CC1(C)C [Lutein, (3R,3′R,6′R)-beta, epsilon-carotene-3,3′-diol] | 87.3 | 85.6 | 85.8 | 85.5 | 86.6 | 87.3 | 0 | 0 | 2120 | 776 | 2346 | 1420 | 1897 | 1170 | better absorption | 226.1 | 2346 | ~2 | 122.3 | 1420 | AUC(0-t) at 10 mg/100 mL ([2]; 37° C., 0-120 min, read-out: Total uptake of Lutein (AUC0-120min, trapezoidal rule) (converted)): 2250 ng·h/mL; Cmax at 10 mg/100 mL ([2]; 37° C., 30, 60, 120 minutes): 1530 ng/mL; Stability in incubation medium ([4]; Time 0 min): 100%; Stability in incubation medium [4, 11]: 108%; Breakdown in incubation medium (in words) [4]: no breakdown
3 | CCCCCCCCCCCCCCCC(=O)O[C@@H]1CC(C)=C(/C=C/C(C)=C/C=C/C(C)=C/C=C/C=C(C)/C=C/C=C(C)/C=C/[C@H]2C(C)=C[C@H](OC(=O)CCCCCCCCCCCCCCC)CC2(C)C)C(C)(C)C1 [Luteinester, Luteindipalmitinic-ester] |  |  |  |  |  |  |  |  |  |  |  |  |  |  |  |  |  |  |  |  | Cmax of cellular uptake of Luteinester (CaCo-2 cells [5]): 530 ng/mL; Total uptake of Luteinester (AUC0-120min, trapezoidal rule) (CaCo-2 cells [5]): 42.2 µg·min/mL
4 | CC1=C(/C=C/C(C)=C/C=C/C(C)=C/C=C/C=C(C)/C=C/C=C(C)/C=C/C2=C(C)C[C@@H](O)CC2(C)C)C(C)(C)C[C@H](O)C1 [Zeaxanthine, (3R,3′R)-beta, beta carotene-3,3′-diol] | 12.7 | 14.4 | 14.2 | 14.5 | 13.4 | 12.7 | 0 | 0 | 309 | 131 | 363 | 240 | 314 | 181 | better absorption | 35.01 | 363 | ~2 | 20.17 | 240 | Absorption of zeaxanthine compared to lutein (in words) (CaCo-2 cells [3]): better absorption as compared to lutein; Stability in incubation medium ([4]; Time 0 min): 100%; Stability in incubation medium [4, 11]: 106%; Breakdown in incubation medium (in words) [4]: no breakdown
